In the test the test system is 922993-354-T-J3-PDC complex spheroids, viability, % test/control. In words: Anticancer human tumor 922993-354-T-J3-PDC patient-derived endometrial carcinoma cell line growth inhibition [CLK]. Particulars: for viability, T/C: stronger effect = lower value; for IC50: curve of compound. An excerpt: A high-throughput screen of multi-cell type tumor spheroids was designed to identify active combinations of […] and targeted small molecules. Complex spheroids include a stromal component modeled by human endothelial cells (HUVEC) and fibroblasts modeled by human mesenchymal stem cells (MSCs). The concentration ranges selected for each drug and investigational agent were based upon clinically achievable concentrations if the clinical Cmax of the agent was known.
Compounds. The drugs and investigational agents: cirtuvivint (SM08502; NSC835563), CC-671 (NSC850746), vemurafenib (NSC761431), tapotoclax (NSC804041), sotorasib (NSC818433), adagrasib (NSC831453), MRTX-1133 (NSC836407), BAY2416964 (NSC825713), copanlisib (NSC816437), inavolisib (NSC800729), abemaciclib (NSC768073), osimertinib (NSC779217), entinostat (NSC756642), eltanexor (KPT-8602, NSC794443), venetoclax (NSC766270), ceralasertib (NSC777638), bortezomib (NSC756655), olaparib (NSC753686), talazoparib (NSC767125), alisertib (NSC759677), peposertib (NSC802822), gemcitabine (NSC613327), 5-fluorouracil (NSC19893), SN-38 (NSC673596), oxaliplatin (NSC266046), paclitaxel (NSC125973), and doxorubicin (NSC123127), were obtained from the National Cancer Institute (NCI) Developmental Therapeutics Program Chemical Repository. The FDA-approved anticancer drug set is available from the Developmental Therapeutics Program at https://dtp.cancer.gov/organization/dscb/obtaining/available plates.htm. […] The stock solutions were prepared in dimethyl sulfoxide (DMSO, Sigma-Aldrich, St. Louis, MO, cat. D2650), except for the platinum complexes which were prepared in saline (Quality Biological, Gaithersburg, MD, cat. 114-055-101), at 800-fold the tested concentration and stored at -70 degrees C prior to their use. All drugs and investigational agents were tested over a range starting from a high concentration at or near the clinical Cmax and decreasing in half-log increments. If the clinical Cmax for an agent had not been determined, the highest concentration tested was 10 microM.
Cell Culture. All cells were maintained in an incubator at 37 degrees C and 5% CO2 with 95% humidity. The PDC lines were cultured according to standard operating procedures established by the NCI PDMR. Briefly, all PDCs were thawed and cultured in Matrigel-coated flasks prepared with a working solution of 1X Ham's F-12 nutrient mix, without supplementation (Invitrogen, Waltham, MA, cat. 11765054), 100 U/mL penicillin-streptomycin (Invitrogen, cat. 15140122), and 2.5% Matrigel (Corning Inc., Corning, NY, cat. 354248) for the first three passages. The 947758-054-R-J2-PDC line was cultured in 6B/Colon 1A media, which includes advanced DMEM/F-12 (Thermo Fisher Scientific, cat. 12634028), 10 mM HEPES (Thermo Fisher Scientific, cat. 15630080), 1X GlutaMAX supplement (Thermo Fisher Scientific, cat. 35050061), 0.1 mg/mL primocin (InvivoGen, cat. ant-pm-2), 10% defined fetal bovine serum, heat inactivated (HyClone Laboratories Inc., cat. SH30070.03HI), 1.25 mM N-Acetyl-L-cysteine (Sigma-Aldrich, cat. A9165), 10 mM nicotinamide (Sigma-Aldrich, cat. N0636), 1X B-27 supplement (Thermo Fisher Scientific, cat. 17504044), 1X N-2 supplement (Thermo Fisher Scientific, cat. 17502048), and 10 microM Y-27632 dihydrochloride (Tocris Bioscience, cat. 1254). The 876862-298-R-J1-PDC was cultured in 6E media, which includes all 6B/Colon 1A media components plus 50% L-WRN conditioned media (ATCC, cat. CRL-3276), 50 ng/mL recombinant human EGF recombinant protein (hEGF; Thermo Fisher Scientific, cat. PHG0311), 10 ng/mL recombinant human fibroblast growth factor 10 (hGFG-10; PeproTech, cat. 100-26), 1 ng/mL recombinant human fibroblast growth factor 2 (hFGF-2; PeproTech, cat. 100-18B), and 1 µM prostaglandin E2 (PGE2; Tocris, cat. 2296). The 227483-062-R1-J1-PDC line was cultured in Panc media, containing all 6E components except hFGF-2, with the addition of 500 nM SB-431542 (Selleckchem, cat. S1067) and 10 nM gastrin (Tocris, cat. 3006). […]

Values joined by “and” are separate entries in the source; they are usually repeats but may differ in a detail not shown here. Equal values may be shown once.

In general, viability, T/C refers to the result in the treated group divided by that in the control group, in per cent. As usually defined, the IC50 is the midpoint of a concentration-inhibition curve.
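Note: spheroids exposed to the agents for 7 days before readout.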

For `C#Cc1c(F)ccc2cc(O)cc(-c3ncc4c(N5CC6CCC(C5)N6)nc(OCC56CCCN5CC(F)C6)nc4c3F)c12` (stereo unspecified), the IC50 is greater than 10 µM. Also, the viability, T/C (compound 0.0316 µM) was 99.4% and 98.9%. Moreover, for the setting “compound 0.1 µM”, the viability, T/C was 82% and 83%. For the setting “compound 0.316 µM”, the viability, T/C is 95.2% and 109%. In addition, for the setting “compound 1 µM”, the viability, T/C was 93% and 94%. The viability, T/C (compound 3.16 µM) was 98.1% and 104%. Also, the viability, T/C (compound 10 µM) was 95.9% and 101%.
Regarding `C=C(F)C(=O)N1CCN(c2nc(OCC3CCCN3C)nc3c2CCN(c2cccc4cccc(Cl)c24)C3)CC1CC#N` (stereo unspecified), the IC50 was 4.9 µM and 4.28 µM. Further, where the note is “compound 0.0316 µM”, the viability, T/C is 96.9% and 91.5%. Further, for the setting “compound 0.1 µM”, the viability, T/C is 97.8% and 100%. Further, for the setting “compound 0.316 µM”, the viability, T/C is 93.3% and 104%. Besides, for the setting “compound 1 µM”, the viability, T/C was 91.2% and 92%. For the same compound, the viability, T/C (compound 3.16 µM) was 79.4% and 67.9%. The viability, T/C (compound 10 µM) was 2.9% and 0.21%.
On to `C=CC(=O)N1CCN(c2nc(=O)n(-c3c(C)ccnc3C(C)C)c3nc(-c4c(O)cccc4F)c(F)cc23)C(C)C1` (stereo unspecified), for which the IC50 was greater than 10 µM. Further, the viability, T/C (compound 0.0316 µM) was 101% and 104%. Under “compound 0.1 µM”, the viability, T/C was 94.5% and 105%. The viability, T/C (compound 0.316 µM) was 104% and 92%. For the same compound, the viability, T/C (compound 1 µM) is 105% and 99.2%. Also, the viability, T/C (compound 3.16 µM) was 92.5% and 111%. The viability, T/C (compound 10 µM) is 93% and 93.6%.
For `C=CC(=O)Nc1cc(Nc2nccc(-c3cn(C)c4ccccc34)n2)c(OC)cc1N(C)CCN(C)C`, the IC50 is greater than 0.3 µM. The viability, T/C (compound 0.000949 µM) is 93.6% and 122%. The viability, T/C (compound 0.003 µM) was 92.5% and 98.6%. The viability, T/C (compound 0.00949 µM) is 60.9% and 98.1%. Further, the viability, T/C (compound 0.03 µM) was 97.8% and 85.3%. Also, the viability, T/C (compound 0.0949 µM) was 90.1% and 94.2%. Also, the viability, T/C (compound 0.3 µM) is 72.3% and 86.4%.
Turning to `CC(C)CC(NC(=O)C(Cc1ccccc1)NC(=O)c1cnccn1)B(O)O` (stereo unspecified), the IC50 was 0.00631 µM and 0.00744 µM. Also, the viability, T/C (compound 0.000949 µM) was 91.1% and 99.8%. The viability, T/C (compound 0.003 µM) is 85.1% and 72.4%. Further, the viability, T/C (compound 0.00949 µM) is 30.7% and 48.4%. Besides, the viability, T/C (compound 0.03 µM) is 2.06% and 11.1%. The viability, T/C (compound 0.0949 µM) is 0.41% and 2.23%. Moreover, under “compound 0.3 µM”, the viability, T/C was 0.17% and 0.49%.
With `CC(CO)NC(=O)c1cc(-c2ccc(Cl)cc2)nn(-c2cnn(C)c2)c1=O` (stereo unspecified), the IC50 is greater than 10 µM. In addition, the viability, T/C (compound 0.0316 µM) is 107% and 97.1%. Also, the viability, T/C (compound 0.1 µM) was 106% and 87.2%. The viability, T/C (compound 0.316 µM) was 98% and 86%. For the same compound, the viability, T/C (compound 1 µM) is 97.1% and 81.7%. Further, the viability, T/C (compound 3.16 µM) was 102% and 95.1%. The viability, T/C (compound 10 µM) is 74.8% and 64.1%.
`CC(Nc1ccc2c(c1)OCCn1cc(N3C(=O)OCC3C(F)F)nc1-2)C(N)=O` (stereo unspecified): the IC50 is 1.79 µM and 3.33 µM. Besides, where the note is “compound 0.0316 µM”, the viability, T/C was 115% and 99.3%. Moreover, the viability, T/C (compound 0.1 µM) was 107% and 93.8%. Moreover, the viability, T/C (compound 0.316 µM) is 84.6% and 77.5%. For the same compound, the viability, T/C (compound 1 µM) is 73.1% and 70.7%. Moreover, the viability, T/C (compound 3.16 µM) was 28.4% and 49%. Besides, the viability, T/C (compound 10 µM) was 22.1% and 34.3%.
For the compound `CC1(C)CCC(CN2CCN(c3ccc(C(=O)NS(=O)(=O)c4ccc(NCC5CCOCC5)c([N+](=O)[O-])c4)c(Oc4cnc5[nH]ccc5c4)c3)CC2)=C(c2ccc(Cl)cc2)C1`, the IC50 was 7.31 µM and > 10 µM. Moreover, the viability, T/C (compound 0.0316 µM) was 96.7% and 84.1%. Further, the viability, T/C (compound 0.1 µM) is 90.2% and 99.4%. Besides, the viability, T/C (compound 0.316 µM) was 110% and 101%. The viability, T/C (compound 1 µM) was 123% and 95.5%. The viability, T/C (compound 3.16 µM) is 85.6% and 121%. In addition, where the note is “compound 10 µM”, the viability, T/C is 36.7% and 82.9%.

Values taken from PubChem BioAssay AID2060606 (Molecular Pharmacology Branch, DTP, NCI, 2025).
